Results: patent publication US10906977B2, “Enhancing the therapeutic activity of immune checkpoint inhibitor” (Maine Medical Center Research Institute, priority 2016, dated 2021)

Key:
[1] = system: chick chorioallantoic membrane (CAM); experiment: Chick CAM angiogenesis induced by soluble RGD collagen peptides; assay type: in vivo
Protocol: (§1) The chick chorioallantoic membrane (CAM) assays were carried out with some modifications (19). For all experiments CAMs of 10-day-old chick embryos obtained from Charles River (North Franklin, Conn.) were separated from the shell membrane. Filter discs either non-treated (inflammation assays) pretreated (angiogenesis assays) with cortisone acetate (3.0 mg/ml) containing RPMI only or FGF-2 (40 ng). CAMs were either non-treated or treated topically with Mab XL313, XL166 or a non-specific control antibody (10 μg/embryo every 24 h for three consecutive treatments). […] At the end of the incubation period the embryos were sacrificed and the CAM tissues were analyzed. Angiogenesis was quantified by counting the number of angiogenic branching blood vessels within the area of the filter disc. The angiogenic index was determined by subtracting the mean number of blood vessel branch points from untreated CAMs from each experimental condition. Eight to twelve embryos were used per condition and experiments were repeated at least three times.

[2] = system: chick chorioallantoic membrane (CAM); experiment: Chick CAM inflammation induced by soluble RGD collagen peptides; assay type: in vivo; conditions: FIG. 5D
Protocol: as §1

P38MAPK = experiment: Phosphorylated P38MAPK in CAM tissue lysates (Western blot); assay type: in vivo, chick; conditions: peptide treated CAMs; FIG. 6B
Protocol: as §1, with “For all experiments CAMs of 10-day-old chick embryos obtained from Charles River (North Franklin, Conn.) were separated from the shell membrane.” left out
Whole cell and CAM tissue lysates were collected in RIPA buffer supplemented with 1× protease inhibitor and 1× phosphatase inhibitor and were run on polyacrylamide gels using denaturing conditions. Prior to loading the gels, 6× sample buffer was added to each of the lysates (final concentration 1×) and boiled for five minutes. Twenty to 50 μg of total protein were loaded into each lane. […] Western blot bands were quantified using Image J software based on pixel intensity.

Src = Src phosphorylation in endothelial cells attached to collagen peptides (Western blot); assay type: cell-based, human; conditions: FIG. 7D
Protocol: Whole cell and CAM tissue lysates were collected in RIPA buffer supplemented with 1× protease inhibitor and 1× phosphatase inhibitor and were run on polyacrylamide gels using denaturing conditions. Prior to loading the gels, 6× sample buffer was added to each of the lysates (final concentration 1×) and boiled for five minutes. Twenty to 50 μg of total protein were loaded into each lane. […] Gels were run at 60 volts (v) until the dye front passed through the stacking gel, and then the voltage was increased to 100V for the remainder of the separation. Precision Plus protein standards (Bio-Rad) were used to visualize migration. Protein was transferred to nitrocellulose membranes using a wet tank system and blocked for 1 h using 10% non-fat dried milk in tris-buffered saline with 0.01% Tween-20 (TBS-T). […] Membranes were washed 3 times in TBS-T for five minutes. Blots were then incubated with HRP conjugated secondary antibodies (1:15000) in 1% non-fat milk in TBS-T for 1 h. Membranes were washed a second time as indicated above and exposed to chemiluminecent substrate for three minutes prior to exposure to autoradiography film in a dark room. Western blot bands were quantified using Image J software based on pixel intensity.

[3] = system: endothelial cells (HUVECs); experiment: Actin stress fiber formation in endothelial cells attached to collagen peptides; assay type: cell-based, human; conditions: FIG. 7G
Protocol: CAMs examined for accumulation of granulation tissue were harvested, fixed in 4% PFA and paraffin embedded and sectioned (4 μm) and stained with Giemsa. CAM tissues analyzed via immunofluorescence were harvested, embedded with OCT, snap frozen and sectioned ([…]). Frozen sections were fixed in 50% methanol/50% acetone, air dried and blocked with 2.5% BSA for 1 h at 37° C. For expression of the XL313 and XL166 epitopes as well as monocyte/macrophages, FGF-2 stimulated CAM tissues were stained with Mabs XL313, XL166 (50 μg/ml) or KUL1 (1:250) and then incubated with Alexa-488 labeled secondary antibodies (1:2000 dilution). Co-staining of monocytes/macrophages and the Mab XL313 reactive epitope in FGF-2 stimulated CAMs was performed by sequential staining by first probing with KUL1 (1:250) and then with a biotinconjugated Mab XL313 (50 μg/ml), and with secondary antibodies Alexa-488 and streptavidin Alexa-594 (1:2000) respectively. Using a similar strategy, sections of RGD peptide-treated CAM tissues were analyzed for phosphorylated-P38MAPK in angiogenic vessels by co-incubation of anti-phospho-P38MAPK (1:50) and anti-vWf (1:500) antibodies. […] Cells were allowed to attach for 15, 30, or 60 min in the absence of serum and were fixed with 4% PFA. Fixed cells were washed and blocked with 2.5% BSA and stained with anti-YAP (1:200) and phalloidin (1:500). […]

[4] = system: endothelial cells transduced with YAP specific or non-specific shRNAs; experiment: Growth of shRNA transduced endothelial cells with soluble RGD peptides; assay type: cell-based, human
Protocol: HUVECs (WT, shYAP1 or control transfected) or HRMVECs were plated at 2,000 cells per well with complete EGM-2 media containing 2.0% FBS in the absence or presence of P-1, P-2 or P-C (100 ng/ml) and allowed to grow for 24 hours. Cell growth was monitored using a BrdU or MMT assay kits according to manufacturer's instructions. All assays were completed at least three times in triplicate wells.
Raw cells were transfected with 1 μg of HuSH shRNA plasmids for collagen type I, alpha 2 using Amaxa cell line nucleofector kit V (program #T024). Constructs expressing 21-nucleotide short hairpin RNAs (shRNA) targeting human YAP (shYAP) or non-targeting control (shNT, Sigma-Aldrich, SHC002) were used. Humantargeting shYAP1 lentiviral shRNA was obtained from the Thermo Scientific RNAi consortium (TRCN0000107625). Constructs were packaged into lentivirus, pseudotyped with the vesicular stomatitis virus glycoprotein. Transduction was performed by incubating cells with lentivirus, and stably transduced cells were subsequently used for studies. All cell lines were verified by morphology and mouse and human YAP-specific PCR. […] Endothelial cells were certified mycoplasma-negative by PCR (Lonza), and primary cell cultures were used within the indicated passage numbers. Cells were transduced and selected using puromycin.

integrin αvβ3 = biological target: T1, integrin αvβ3 (Homo sapiens, UniProt P05106+P06756); experiment: Solid phase ELISA, recombinant integrin αvβ3 binding to immobilized peptide P-2; conditions: peptide immobilized 100 μg/ml; FIG. 30
T1 construct: purchased R&D Systems (Minneapolis, Minn.)
T1 sequence (P06756 31-992 limits assumed): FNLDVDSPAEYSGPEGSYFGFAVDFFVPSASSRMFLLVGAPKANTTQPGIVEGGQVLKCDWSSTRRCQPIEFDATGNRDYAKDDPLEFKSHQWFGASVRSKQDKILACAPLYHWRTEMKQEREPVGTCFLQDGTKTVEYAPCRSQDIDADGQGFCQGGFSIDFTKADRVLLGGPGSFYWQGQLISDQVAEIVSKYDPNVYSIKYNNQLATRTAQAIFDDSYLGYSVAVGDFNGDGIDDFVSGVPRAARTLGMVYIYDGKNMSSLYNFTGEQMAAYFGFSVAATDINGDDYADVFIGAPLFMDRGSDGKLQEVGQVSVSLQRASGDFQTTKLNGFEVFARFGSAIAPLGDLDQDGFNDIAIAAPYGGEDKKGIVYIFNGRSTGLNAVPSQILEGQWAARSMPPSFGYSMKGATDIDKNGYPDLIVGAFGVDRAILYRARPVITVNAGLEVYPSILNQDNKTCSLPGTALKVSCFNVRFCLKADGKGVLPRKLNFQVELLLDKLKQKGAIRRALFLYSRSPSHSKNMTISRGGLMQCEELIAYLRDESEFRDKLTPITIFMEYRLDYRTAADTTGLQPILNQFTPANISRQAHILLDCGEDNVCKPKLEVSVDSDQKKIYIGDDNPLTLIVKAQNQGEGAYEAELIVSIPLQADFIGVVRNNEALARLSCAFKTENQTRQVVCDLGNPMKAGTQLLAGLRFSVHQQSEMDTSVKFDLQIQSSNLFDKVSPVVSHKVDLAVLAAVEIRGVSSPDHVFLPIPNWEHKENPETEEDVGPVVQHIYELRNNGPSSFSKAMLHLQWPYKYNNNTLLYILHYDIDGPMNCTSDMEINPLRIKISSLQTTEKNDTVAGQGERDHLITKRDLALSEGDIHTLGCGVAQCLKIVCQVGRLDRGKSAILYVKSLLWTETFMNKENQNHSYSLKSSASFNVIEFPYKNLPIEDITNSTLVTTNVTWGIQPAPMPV
T1 sequence (P05106 27-718 limits assumed): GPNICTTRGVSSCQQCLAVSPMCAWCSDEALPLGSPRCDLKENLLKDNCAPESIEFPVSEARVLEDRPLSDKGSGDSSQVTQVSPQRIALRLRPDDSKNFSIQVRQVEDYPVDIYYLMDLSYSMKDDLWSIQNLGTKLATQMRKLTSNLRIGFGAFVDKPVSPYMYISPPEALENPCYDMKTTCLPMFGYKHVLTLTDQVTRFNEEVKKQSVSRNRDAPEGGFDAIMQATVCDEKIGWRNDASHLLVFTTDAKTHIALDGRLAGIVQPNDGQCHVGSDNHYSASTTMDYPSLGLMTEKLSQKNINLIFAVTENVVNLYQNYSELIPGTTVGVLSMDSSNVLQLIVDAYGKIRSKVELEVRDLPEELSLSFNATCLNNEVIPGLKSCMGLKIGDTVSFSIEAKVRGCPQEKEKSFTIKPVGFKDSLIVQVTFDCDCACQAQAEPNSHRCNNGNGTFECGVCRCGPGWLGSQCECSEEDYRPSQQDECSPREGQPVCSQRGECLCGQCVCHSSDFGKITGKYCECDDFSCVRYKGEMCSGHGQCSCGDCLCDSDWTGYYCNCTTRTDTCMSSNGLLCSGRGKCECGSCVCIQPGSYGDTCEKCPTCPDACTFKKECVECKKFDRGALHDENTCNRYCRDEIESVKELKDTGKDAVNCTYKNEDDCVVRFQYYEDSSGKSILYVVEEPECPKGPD
Protocol: The cryptic collagen peptide P-2 was immobilized (100 μg/ml) on microtiter wells and increasing concentrations of recombinant integrin αvβ3 was added and integrin binding was quantified. Data bars indicate mean integrin binding±standard deviation from triplicate wells.
The cryptic collagen peptide P-2 was immobilized (100 μg/ml) on microtiter wells and recombinant integrin αvβ3 was added and it was allowed to bind in the presence (50 μg/ml) or absence of Mab X1313 or control antibody (Mab XL166 directed to other collagen RGD peptides). Data bars indicate mean integrin binding±standard deviation from triplicate wells.

binding of integrin receptor αvβ3 to peptide (integrin αvβ3): dose-dependently binds
Sequence: CQGPRGDKGEC [Mab P-2]
dose dependent induction of CAM angiogenesis ([1]; FIG. 5B): dose dependently enhanced angiogenesis
dose of maximum induction of angiogenesis ([1]; FIG. 5B): 100 ng/CAM
induction of CAM angiogenesis as compared to no treatment ([1]; soluble peptide, FIG. 5C): induced angiogenesis
CAM inflammation following stimulation with peptide [2]: induced inflammation to nearly that of FGF-2 stimulation
increase in phosphorylation of P38MAPK in CAM tissues as compared to controls (P38MAPK): 4 fold
enhancement of Src phosphorylation as compared to P-1 (Src): ~2 fold
actin stress fiber formation as compared to P-1 [3]: accelerated actin stress fiber formation
growth of endothelial cells in which YAP was knocked down ([4]; YAP specific shRNA, FIG. 8H): failed to induce growth
growth of control transduced endothelial cells with soluble peptide ([4]; non-specific shRNA, FIG. 8G): enhanced growth
